Legend:
NFAT = assay: Jurkat T cell model, NFAT dependent luciferase activation by PMA plus ionomycin; format: cell-based; conditions: luciferase construct
Method: (§1) Substances according to the invention were investigated in an accepted Jurkat T cell model. The underlying mechanism is based on the fact that the transcriptional activity of lymphokines, such as e.g. the one of IL-2, is based on the coordinated activation of different transcription factors, such as e.g. NFAT and NF-κB. The effect of the substances according to the invention on said factors was evaluated in-vitro with the aid of a luciferase-coupled construct (KBF-luc). Thereby, an activation of transiently transfected cells (Jurkat T cells) through PMA (plus ionomycin in case of NFAT activation), driven by a NF-κB or NFAT dependent promoter, leads to a strong induction of luciferase gene expression. The inhibition of the luciferase activity was measured as a function of the dose rate of the substance according to the invention. A knowledgeable person skilled in the art can easily follow such procedure from the literature (e.g. in Yuan et al. (2002), Sancho et al. (2003), Do et al. (2004) and Cencioni et al. (2010)).

CB1 receptors [1] = target: T1, CB1 receptors (Homo sapiens, UniProt P21554); assay: biochemical; format: binding; set-up: purchased RBHCB1M400UA; host or cells: human cells (transfected); conditions: for Ki: dissociation constant, mean +/- SEM, competition with [3H]-CP55940; for CB1 (% binding): screening with a single high dose, displacement of [3H]-CP55940
CB2 receptors [2] = target: T2, CB2 receptors (Homo sapiens, UniProt P34972); assay: Competition binding study with [3H]-CP55940 in CB2 receptor transfected cell membranes; set-up: purchased RBXCB2M400UA; host or cells: human cells (transfected); conditions: for Ki: dissociation constant, mean +/- SEM, competition with [3H]-CP55940; for Ki (CB1): Ki (CB2) Selectivity for CB2 in comparison to CB1 (rounded): ratio of Ki values; for CB2 (% binding): screening with a single high dose, displacement of [3H]-CP55940
CB2 receptors [3] = target: T2, CB2 receptors; assay: Signal transduction in CHO-CB2-CREluc cells (luciferase; forskolin, AM630); conditions: for Effect on CB2 receptor (in words): text statement
CB1 receptors [4] = target: T1, CB1 receptors; assay: Signal transduction in CHO-CB1-CREluc cells (luciferase; agonism, and antagonism against WIN); conditions: for Effect on CB1 receptor (in words): text statement
NF-κB = assay: Jurkat T cell model, NF-κB dependent luciferase activation by PMA; format: cell-based; conditions: luciferase construct
Method: as §1

[5] = listed as 2-Hydroxyethyl cannabidiolate
[6] = listed as N-Methyl-sulfonyl cannabidiolate
[7] = listed as Glyceryl cannabidiolate

T1 sequence (P21554 whole entry): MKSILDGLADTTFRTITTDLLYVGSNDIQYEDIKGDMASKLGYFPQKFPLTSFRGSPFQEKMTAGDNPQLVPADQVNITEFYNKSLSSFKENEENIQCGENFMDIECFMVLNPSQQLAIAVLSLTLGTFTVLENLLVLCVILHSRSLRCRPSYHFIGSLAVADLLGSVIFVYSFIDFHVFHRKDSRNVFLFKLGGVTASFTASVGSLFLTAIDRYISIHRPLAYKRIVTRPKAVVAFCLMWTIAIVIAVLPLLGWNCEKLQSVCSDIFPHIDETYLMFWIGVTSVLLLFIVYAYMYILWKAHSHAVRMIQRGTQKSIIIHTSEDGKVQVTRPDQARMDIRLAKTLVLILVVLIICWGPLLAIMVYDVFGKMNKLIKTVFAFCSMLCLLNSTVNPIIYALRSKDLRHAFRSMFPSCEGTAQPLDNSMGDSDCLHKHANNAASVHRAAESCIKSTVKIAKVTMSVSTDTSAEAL
T2 sequence (P34972 whole entry): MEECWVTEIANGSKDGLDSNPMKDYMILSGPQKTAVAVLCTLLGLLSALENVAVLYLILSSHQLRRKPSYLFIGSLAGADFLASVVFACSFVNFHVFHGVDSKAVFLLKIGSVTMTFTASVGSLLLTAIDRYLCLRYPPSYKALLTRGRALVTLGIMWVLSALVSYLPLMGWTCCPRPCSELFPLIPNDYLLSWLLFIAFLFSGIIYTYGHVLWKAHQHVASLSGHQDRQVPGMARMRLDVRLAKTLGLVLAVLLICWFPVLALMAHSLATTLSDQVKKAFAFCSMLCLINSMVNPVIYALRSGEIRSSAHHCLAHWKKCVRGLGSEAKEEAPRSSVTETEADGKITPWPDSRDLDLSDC

Structure (SMILES) | Inhibition of NFAT dependent activation of T cells (NFAT) | Ki (CB1 receptors [1]) [nM] | CB1 (% binding) (CB1 receptors [1]) [%] | Ki (CB2 receptors [2]) [nM] | Ki (CB1): Ki (CB2) Selectivity for CB2 in comparison to CB1 (rounded) (CB2 receptors [2]) | CB2 (% binding) (CB2 receptors [2]) [%] | Agonism and antagonism at CB2 (CB2 receptors [3]) | Effect on CB2 receptor (in words) (CB2 receptors [3]) | Effect on CB2 receptor (in words) (CB2 receptors [3]; [5]) | Agonism and antagonism at CB1 (CB1 receptors [4]) | Effect on CB1 receptor (in words) (CB1 receptors [4]) | Effect on CB1 receptor (in words) (CB1 receptors [4]; [5]) | Effect on CB1 receptor (in words) (CB1 receptors [4]; listed as cyclohexyl cannabidiolate) | Inhibition of NF-κB dependent activation of T cells (NF-κB) | Binding to CB1 receptors (in words) (CB1 receptors [1]) | Binding to CB2 receptors (in words) (CB2 receptors [2]) | Effect on CB2 receptor (in words) (CB2 receptors [3]; [6]) | Effect on CB1 receptor (in words) (CB1 receptors [4]; [6]) | Effect on CB2 receptor (in words) (CB2 receptors [3]; [7]) | Effect on CB1 receptor (in words) (CB1 receptors [4]; [7])
C=C(C)[C@@H]1CCC(C)=C[C@H]1c1c(O)cc(CCCCC)c(C(=O)OCCO)c1O [Compound III, 2-hydroxyethyl cannabidiolate] | inhibition | 3920 | 77.3 ± 6.5 | 375 ± 47.7 | 10.4 | 90.3 ± 2.4 | + | CB2 agonists | strong activation | − | CB1 antagonists | inhibit |  |  |  |  |  |  |  | 
C=C(C)[C@@H]1CCC(C)=CC1c1c(O)cc(CCCCC)c(C(=O)OC2CCCCC2)c1O (some centres unmarked) [XII, Cyclohexyl cannabidiolate] |  | 538 ± 53.9 | 81.5 ± 6.8 | 67 ± 4 | 37 | 99.2 ± 2.3 | 0 |  |  | − | CB1 antagonists |  | antagonistic effect |  |  |  |  |  |  | 
C=C(C)[C@@H]1CCC(C)=CC1c1c(O)cc(CCCCC)c(C(=O)OCCNS(C)(=O)=O)c1O (some centres unmarked) [XIII, N-Methyl-sulfonyl cannabidiolate] | strong inhibition | 538 ± 53.9 | 98.9 ± 7.8 | 0.012 ± 0.001 | 22.5 | 104.9 ± 4.8 | + | CB2 agonists |  | − | CB1 antagonists |  |  | strong inhibition | high binding affinity | high binding affinity | agonistic effect | antagonistic effect |  | 
C=C(C)[C@@H]1CCC(C)=C[C@H]1c1c(O)cc(CCCCC)c(C(=O)OCC(O)CCC)c1O (some centres unmarked) [Compound V, 2-hydroxypentyl cannabidiolate] |  | 538 ± 53.9 | 82.0 ± 8.0 |  |  |  | + | CB2 agonists |  | − | CB1 antagonists |  |  |  |  |  |  |  |  | 
C=C(C)[C@@H]1CCC(C)=CC1c1c(O)cc(CCCCC)c(C(=O)OCCCCCC)c1O (some centres unmarked) [XI, Hexyl cannabidiolate] |  | 538 ± 53.9 | 92.2 ± 1.7 | 510 ± 29 | 1 | 97.2 ± 3.4 |  | CB2 agonists |  |  | CB1 agonists |  |  |  |  |  |  |  |  | 
C=C(C)C1CCC(C)=CC1c1c(O)cc(CCCCC)c(C(=O)OCC(O)CCC)c1O (centres unmarked) [2-hydroxypentyl cannabidiolate] | inhibition |  |  |  |  |  |  | strong activation |  |  | inhibit |  |  |  |  |  |  |  |  | 
C=C(C)[C@@H]1CCC(C)=C[C@H]1c1c(O)cc(CCCCC)c(C(=O)OCC(O)CO)c1O (some centres unmarked) [Compound IV, Glyceryl cannabidiolate] | inhibition | 2170 | 90.2 ± 3.8 | 277 ± 78.7 | 7.8 | 101.6 ± 0.5 | + | CB2 agonists |  | + | CB1 agonists |  |  |  |  |  |  |  | strong activation | weak activation
C=C(C)C1CCC(C)=CC1c1c(O)cc(CCCCC)c(C(=O)OCCCCCC)c1O (centres unmarked) [Hexyl cannabidiolate] |  |  |  |  |  |  | + | antagonism |  | + | antagonism |  |  |  |  |  |  |  |  | 

From patent US9670133B2, “Mixtures of cannabinoid compounds, and production and use thereof” (priority 2013, dated 2017)
